Test results reported in patent US8466201B2, “Potassium ion channel modulators and uses thereof” (Ramot at Tel-Aviv University ltd., priority 2007, dated 2013).

Molecular target: KCNQ2/KCNQ3 potassium channel current expressed in mammalian cells (Homo sapiens, UniProt O43525+O43526)
Experiment: KCNQ2/KCNQ3 current enhancement, automated parallel patch-clamp (PatchXpress 7000A)
Assay type: cell-based
Settings: mean±s.e.m
Protocol: The objective of this study was to examine the in vitro effects of the Example compounds on the KCNQ2/KCNQ3 potassium channel current expressed in mammalian cells using the PatchXpress 7000A (Molecular Devices), an automatic parallel patch-clamp system. The test compounds were evaluated at 30 or 10 μM (n≦2). The duration of exposure to the test compound was 5 minutes. […] The results for a positive control, flupirtine (Table 2) applied to naïve cells in the same study confirm the sensitivity of the test system to detect KCNQ2/KCNQ3 current enhancement.
All experiments were performed at ambient temperature. Each cell acted as its own control.
A 30 μM or 10 μM concentration of test compound was applied via disposable polyethylene micropipette tips to naïve cells. Each solution exchange, performed in quadruplicate, consisted of aspiration and replacement of 45 μL of the total 50 μL volume of the extracellular well of the Sea/chip16.
Vehicle was applied to naïve cells (n≦2), for a 5 minute exposure interval.
Each solution exchange, performed in quadruplicate, consisted of aspiration and replacement of 45 μL of the total 50 μL volume of the extracellular well of the Sea/chip16. After vehicle application, the positive control was applied in the same manner, to verify sensitivity of the assay.
In preparation for a recording session, intracellular solution was loaded into the intracellular compartments of the Sea/chip16 planar electrode. Cell suspension was pipetted into the extracellular compartments of the Sea/chip16 planar electrode. After establishment of the whole-cell configuration, membrane currents were recorded using dual-channel patch-clamp amplifiers in the PatchXpress® system. Before digitization, the current records were low-pass filtered at one-fifth of the sampling frequency.
Data acquisition and analysis were performed using the pCLAMP suite of programs (Axon Instruments, Union City, Calif.). The steady-state current before and after test article application was used to calculate the percentage current enhancement at each concentration. The results obtained from different cells were averaged and presented as mean±s.e.m (see Tables 1 and 2).

[1] = 30 μM test compound, 5 minutes exposure, ambient temperature

| SMILES | Mean % Enhancement of KCNQ2/KCNQ3 [1] [%] | other results |
| --- | --- | --- |
| O=S(=O)(NCCO)c1ccccc1Nc1c(Cl)cccc1Cl [Example 9, N-(2-Hydroxyethyl)-2-(2,6-dichlorophenylamino)-benzenesulfonamide] | 56.8 ± 9 |  |
| CCOC(=O)Nc1ccc(NCc2ccc(F)cc2)nc1N [Flupirtine, flupirtine, reference compound] |  | Mean % Enhancement of KCNQ2/KCNQ3 (positive control, 10 μM, applied after vehicle to naïve cells): 127 ± 16% |
| O=S(=O)(NCCO)c1ccccc1Nc1c(Cl)cc(Cl)cc1Cl [Example 8, N-(2-Hydroxyethyl)-2-(2,4,6-trichlorophenylamino)-benzenesulfonamide] | 41.2 ± 9 |  |
| O=S(=O)(NCCO)c1cc(Nc2c(Cl)cc(Cl)cc2Cl)ccc1Cl [Example 18, 2-Chloro-N-(2-hydroxyethyl)-5-(2,4,6-trichlorophenylamino)benzensulfonamide] |  | Mean % Enhancement of KCNQ2/KCNQ3 (10 μM test compound, 5 minutes exposure, ambient temperature): 18.6 ± 4% |
| O=S(=O)(NCCO)c1cccc(Nc2c(Cl)cc(Cl)cc2Cl)c1 [Example 16, N-(2-Hydroxyethyl)-3-(2,4,6-trichlorophenylamino)-benzenesulfonamide] | 87.4 ± 14 |  |
| O=S(=O)(Cc1ccccc1Nc1c(Cl)cccc1Cl)NCCOCCO [Example 1, 1-[2-(2,6-Dichlorophenylamino)phenyl]-N-[2-(2-hydroxyethoxy)ethyl]-methanesulfonamide] | 32.4 ± 18 |  |
